Measurements published in patent publication US20200216496A1, “Antibacterial Compounds Produced by the Microorganism Strain Corallococcus Coralloides ST201330 (DSM 24989)” (Sanofi, priority 2017, published 2020).
*1 amine or outer side, *2 acyl side, *3 side chain or, on linkers, in order; H or OH if unused. Where a SMILES comes first, the peptide text is derived from it. [ ]: non-standard residue; d: D form. The star is where a group is joined. ξ: configuration not given here. X2 = Cn1cncc1C(O)C(N[*:1])C(=O)[*:2]; X3 = COC(CN[*:1])C(O)C(O)C(=O)[*:2]; ξVal(3-OH) = CC(C)(O)C(N)C(=O)O; NMeF = CN[CH](Cc1ccccc1)C(=O)O; X4 = O=C(C(O)N[*:1])[*:2]; X1 = CC(O)C(O)C(=O)*

Assays:
E. coli strain ATCC35218 = assay type: cell-based, Escherichia coli
Experimental: The present in vitro test identifies molecules having antimicrobial activity on the microorganisms by quantification of the culture optical density. Optical density compared to a vial with the same medium non inoculated by bacteria is an indicator of the bacterial growth. Minimal inhibitory concentrations were evaluated following the CLSI and EUCAST guidelines. Bacterial inoculum were prepared by overnight culture in cation-adjusted Mueller-Hinton II (MHII) medium from colonies isolated from colonies on agar plates, then diluted to evaluate the colony forming units (cfu) using the McFarland turbidity standard. A 96 well plate was inoculated with 100 μl of 5.105 cfu/ml in MHII, and test compounds prepared by serial dilution at 100× concentration in DMSO. After a 20-22 h incubation, optical density was evaluated on a microplate reader and the MIC endpoint was determined as the lowest concentration of antibiotic at which there is no visible growth in duplicates, meaning that optical density differs no more from negative controls than 10% of the difference in optical density between negative controls (medium, no bacteria) and positive control (bacteria in medium, no antibiotics).

[1] = system: Escherichia coli ATCC 35218; assay: Antibacterial activity against Escherichia coli: inhibitory activity (IC80), broth microdilution, absorbance at 590 nm; assay type: cell-based; conditions: Mueller Hinton broth, 37° C., 20 hours, growth inhibited by 80%
Experimental: A stock solution of 1000 μg/ml of the test compound was prepared in methanol. The test strain (Escherichia coli ATCC 35218) was stored at −80° C. The inoculum was prepared from a fresh liquid preculture. The preculture was prepared from a bead of the material stored at −80° C. and 30 ml of nutrient medium (Mueller Hinton broth, Difco) and incubated at 37° C. and 180 rpm for 18 hours. The inoculum was adjusted to an optical density (OD) of 0.2 at a wavelength of 600 nm. For this, the inoculum was adjusted to a value of 10^8 CFU/ml (CFU: colony forming units). After the adjustment of the inoculum, the suspension was diluted with nutrient solution (Mueller Hinton broth, Difco) in a ratio of 1:10000. The microtiter plate was inoculated within 15 min of preparation of the inoculum. The exact colony count was determined by means of surface culture. Using the stock solution of the test compound and the nutrient medium (Mueller Hinton broth, Difco), a dilution series was prepared beforehand on the microtiter plate. […] The microtiter plates were read with the aid of a photometer at a wavelength of 590 nm by measurement of the absorption. IC80 values were subsequently calculated from the values of the dilution series according to a standard process as the concentration of the test compound which is necessary in order to inhibit the growth of the test organism Escherichia coli by 80%.

Compound | Absorbance MIC (E. coli strain ATCC35218) [µg/mL] | IC80 for inhibition of Escherichia coli ATCC 35218 [1] [µg/mL]
COC(CNC(=O)C(NC(=O)C(O)C(C)O)C(O)c1cncn1C)C(O)C(O)C(=O)N(C)C(Cc1ccccc1)C(=O)NCC(=O)NC(C(=O)NC(CO)C(=O)NC(C(=O)NC(CC(C)C)C(=O)NC(CO)C(=O)O)C(C)(C)O)C(C)(C)O (stereo not drawn) [formula Ia] (X1-[X2][X3][NMeF]G[ξVal(3-OH)]S[ξVal(3-OH)]LS-OH; configuration not given here) | 1 to 4 | 
COC(CNC(=O)C(NC(=O)C(O)C(C)O)C(O)c1cncn1C)C(O)C(O)C(=O)N(C)C(Cc1ccccc1)C(=O)NC(O)C(=O)NC(C(=O)NC(CO)C(=O)NC(C(=O)NC(CC(C)C)C(=O)NC(CO)C(=O)O)C(C)(C)O)C(C)(C)O (stereo not drawn) [formula Ib] (X1-[X2][X3][NMeF][X4][ξVal(3-OH)]S[ξVal(3-OH)]LS-OH; configuration not given here) | 8 | 0.71
